Laboratory results reported in ChEMBL document CHEMBL4433226, “Unnatural Tripeptides as Potent Positive Allosteric Modulators of T1R2/T1R3” (ACS Med Chem Lett, 2019).
Activity calls are given as the source filed them. No cut-off for these calls is given here.

Experiments:
T1R2/T1R3 (Homo sapiens) [1] = biological target: T1, T1R2/T1R3 (Homo sapiens) (UniProt Q8TE23+Q7RTX0); test: Agonist activity at human T1R2/T1R3 expressed in PEAKrapid cells assessed as effect on intracellular calcium influx measured for 120 secs by fluorescence based assay; assay type: functional, cell-based
T1R2/T1R3 (Homo sapiens) [2] = biological target: T1, T1R2/T1R3 (Homo sapiens); test: Positive allosteric modulator activity at human T1R2/T1R3 expressed in PEAKrapid cells assessed as potentiation of sucrose-induced intracellular calcium influx by measuring sucrose EC50 at 30 uM measured for 120 secs by fluorescence based assay relative to FEMA4774; assay type: functional, cell-based
Homo sapiens = organism: Homo sapiens; test: Sweetness enhancing activity in trained human panelists assessed as rating of perceived sweetness intensity of depicted sucrose solutions at 10 ppm co-treated with 5% sucrose relative to original level; assay type: functional
T1R2/T1R3 (Homo sapiens) [3] = biological target: T1, T1R2/T1R3 (Homo sapiens); test: Positive allosteric modulator activity at human T1R2/T1R3 expressed in PEAKrapid cells assessed as potentiation of sucrose-induced intracellular calcium influx by measuring sucrose EC50 at 50 uM measured for 120 secs by fluorescence based assay relative to compound-2; assay type: functional, cell-based

SMILES | Activity (T1R2/T1R3 (Homo sapiens) [1]) | Efficacy (T1R2/T1R3 (Homo sapiens) [2]) [%] | Efficacy (T1R2/T1R3 (Homo sapiens) [3]) [%] | fold change (FC) (Homo sapiens)
Cl.Cl.Nc1c(NC(=O)CCCCNC(=O)[C@@H](N)C2CCCCC2)cncc1C(=O)O | inactive | 45 |  | 1.96
Cc1nc2cccc(OCC(C)(C)C(=O)NC(C)C)c2c(N)c1C(=O)O | inactive |  |  | 1.97
Nc1c(NC(=O)CCCNC(=O)[C@@H](N)C2CCCCC2)cncc1C(=O)O | inactive | 37 |  | 
CC(C)[C@@H](CCC(=O)Nc1cncc(C(=O)O)c1N)NC(=O)[C@@H](N)C1CCCCC1 | inactive | 45 |  | 
Nc1c(NC(=O)CC[C@H](Cc2ccccc2)NC(=O)[C@@H](N)C2CCCCC2)cncc1C(=O)O | inactive | 55 |  | 
CC(C)(CC(=O)Nc1cncc(C(=O)O)c1N)NC(=O)[C@@H](N)C1CCCCC1.Cl.Cl | inactive | 67 |  | 2.05
Cc1nc2ccccc2c(N)c1C(=O)O | inactive |  |  | 
CC[C@H](C)[C@@H](CCC(=O)Nc1cncc(C(=O)O)c1N)NC(=O)[C@@H](N)C1CCCCC1 | inactive | 51 |  | 
C[C@@H](CC(=O)Nc1cncc(C(=O)O)c1N)NC(=O)[C@@H](N)C1CCCCC1 | inactive | 44 |  | 
Nc1c(C(=O)O)cncc1-c1ccccc1 | inactive |  | 80 | 
CC(C)[C@@H](CC(=O)Nc1cncc(C(=O)O)c1N)NC(=O)[C@@H](N)C1CCCCC1 | inactive | 35 |  | 
Nc1c(NC(=O)CCCCCCNC(=O)[C@@H](N)C2CCCCC2)cncc1C(=O)O | inactive | 36 |  | 
CC(C)C[C@@H](CC(=O)Nc1cncc(C(=O)O)c1N)NC(=O)[C@@H](N)C1CCCCC1 | inactive | 38 |  | 

Continued, in another order:

Activity (T1R2/T1R3 (Homo sapiens) [1]) | Efficacy (T1R2/T1R3 (Homo sapiens) [2]) [%] | Efficacy (T1R2/T1R3 (Homo sapiens) [3]) [%] | SMILES | fold change (FC) (Homo sapiens)
inactive | 72 |  | Cl.Cl.Nc1c(C(=O)O)cncc1-c1ccc(CNC(=O)[C@@H](N)C2CCCCC2)o1 | 1.77
inactive | 52 |  | CC(C)[C@H](N)C(=O)NCc1ccc(-c2cncc(C(=O)O)c2N)o1 | 
inactive | 33 |  | CC(=O)NCc1ccc(-c2cncc(C(=O)O)c2N)o1 | 
inactive | 61 |  | CC(C)C[C@H](N)C(=O)NCc1ccc(-c2cncc(C(=O)O)c2N)o1 | 
inactive |  | 83 | Nc1c(C(=O)O)cncc1-c1ccco1 | 
inactive | 37 |  | CC(C)C(=O)NCc1ccc(-c2cncc(C(=O)O)c2N)o1 | 
inactive | 43 |  | CC(C)CNC(=O)C(=O)NCc1ccc(-c2cncc(C(=O)O)c2N)o1 | 
inactive | 41 |  | CC(C)(C)OC(=O)NCc1ccc(-c2cncc(C(=O)O)c2N)o1 | 
inactive | 42 |  | CC(C)CC(=O)NCc1ccc(-c2cncc(C(=O)O)c2N)o1 | 
inactive | 48 |  | CC(C)CNC(=O)NCc1ccc(-c2cncc(C(=O)O)c2N)o1 | 
inactive |  | 85 | Nc1c(C(=O)O)cncc1-c1cccs1 | 
inactive | 55 |  | CC[C@H](C)[C@H](N)C(=O)NCc1ccc(-c2cncc(C(=O)O)c2N)o1 | 
